Here are results for one molecule from patent US20230165867A1 (CHENGDU BAIYU PHARMACEUTICAL CO., LTD., priority 2020, published 2023).

In general, AUC refers to the area under the concentration-time curve, a measure of exposure. Higher therefore signals high exposure. In general, Cmax refers to the maximum level reached in the sampled fluid or tissue. Usually IC50 stands for the point on the concentration scale where inhibition reaches its midpoint.

Where two headings read alike, the source gives them in different places.

Data set [1] can be described thus: Pharmacokinetic assay in ICR mice (i.v. and p.o.). The conditions noted are these: mouse, plasma, male ICR mice; for half-life: read-out: T½ (converted). Format: in vivo. In outline: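 Fasted male ICR mice (18-22 g) dosed at 1 mg/kg i.v. or 10 mg/kg p.o. in 5% DMSO/95% 30% HP-β-CD, three mice per time point. Submandibular plasma sampled up to 24 h, assayed by LC/MS/MS.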

Another data set addresses T1, TTK kinase (Homo sapiens, UniProt P33981).
T1 construct: purchased Invitrogen PV3792
T1 sequence (P33981 1-857): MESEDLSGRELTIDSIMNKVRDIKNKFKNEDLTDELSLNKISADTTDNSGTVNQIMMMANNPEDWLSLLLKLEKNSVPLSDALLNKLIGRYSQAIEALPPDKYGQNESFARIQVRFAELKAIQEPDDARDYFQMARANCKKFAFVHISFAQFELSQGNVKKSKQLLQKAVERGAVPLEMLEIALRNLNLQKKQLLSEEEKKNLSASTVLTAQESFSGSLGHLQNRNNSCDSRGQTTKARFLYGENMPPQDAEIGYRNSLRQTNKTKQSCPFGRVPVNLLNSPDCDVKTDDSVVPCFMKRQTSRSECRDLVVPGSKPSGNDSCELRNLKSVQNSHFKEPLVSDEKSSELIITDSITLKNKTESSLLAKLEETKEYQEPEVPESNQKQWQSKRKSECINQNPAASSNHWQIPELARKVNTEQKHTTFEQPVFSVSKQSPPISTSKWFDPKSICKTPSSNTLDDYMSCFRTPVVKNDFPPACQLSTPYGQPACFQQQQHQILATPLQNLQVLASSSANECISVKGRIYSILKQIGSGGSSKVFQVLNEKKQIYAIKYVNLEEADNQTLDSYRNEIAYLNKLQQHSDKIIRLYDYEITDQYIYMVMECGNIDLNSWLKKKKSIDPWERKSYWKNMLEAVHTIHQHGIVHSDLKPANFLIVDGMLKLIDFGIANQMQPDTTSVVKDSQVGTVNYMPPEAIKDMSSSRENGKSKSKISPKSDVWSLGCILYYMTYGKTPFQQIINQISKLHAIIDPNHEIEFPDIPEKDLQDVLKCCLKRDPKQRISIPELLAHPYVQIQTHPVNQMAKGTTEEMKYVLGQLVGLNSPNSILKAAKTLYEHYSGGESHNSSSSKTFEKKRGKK
In words: TTK kinase activity assay (ADP-Glo). Format: biochemical. Conditions: initial concentration 1000 nM, 1:3, 10 dilutions; read-out: IC50 (nM), TTK kinase inhibiting activity. As to the method:
TTK kinase was purchased from Invitrogen, Cat.#: PV3792.
• (1) 1×buffer was prepared by diluting 5×buffer into 1×buffer with ddH2O, and adding 0.05 mM DTT. • (2) The compounds of the present invention were prepared at an initial concentration of 1000 nM, and diluted by 1:3 to obtain 10 serial dilutions. • (3) The diluted compounds of the present invention were added to a 384-well plate (purchased from Greiner, product number 784075) by an Echo 550 pipetting workstation, and centrifuged at 1000 g for 1 min. • (3) A 2×TTK enzyme solution was prepared with the 1×buffer. Then, 2.5 µL of the 2× enzyme solution was added to each well, centrifuged at 1000 g for 30 s, and left at room temperature for 10 min. • (4) A 2×MBP substrate/ATP mixture was prepared with the 1×buffer.
In general terms: ADP-Glo first removes unused ATP, then detects ADP through luciferase.

A further data set has as its target T2, DNA-PK kinase (Homo sapiens, UniProt P78527).
T2 construct: purchased Promega V4107
In words: Inhibition assay of DNA-PK kinase (Promega kit, ADP-Glo chemiluminescence). The conditions noted are these: 50 µM ATP, 37° C., 60 min; read-out: IC50 (nM), inhibitory activity on DNA-PK kinase. The format is biochemical. In short, it runs like this: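 Compounds incubated with DNA-PK at 37° C for 60 min; reaction stopped with ADP-Glo reagent (40 min, RT), then kinase detection reagent (30 min, RT). ADP formed read by luminescence against an ADP standard curve.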

A short description of data set [2]: Metabolic stability in liver microsomes. Conditions: human, human liver microsomes; 0.5 µM test substance, 0.5 mg/mL microsomes, NADPH and UDPGA, 37° C.; read-out: T½(min), stability in human liver microsomes. The format is in vitro ADME, human. In short, it runs like this:
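Human liver microsomes (0.5 mg/mL) incubated at 37 °C with test compound (0.5 µM), NADPH (1 mM) and UDPGA (1 mM) for up to 120 min; no-cofactor negative control. Methanol-quenched samples analysed by LC-MS/MS for parent remaining; T½ from log-remaining vs time slope, Clint scaled from T½.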
A general note: Microsomes from liver hold many membrane-bound enzymes, among them those of drug oxidation.

Turning to `CNC(=O)c1ccc(Nc2ncc3c(n2)n(C2CCOCC2)c(=O)n3C)c(C)c1` [Compound 27, N,3-Dimethyl-4-((7-methyl-8-oxo-9-(tetrahydro-2H-pyran-4-yl)-8,9-dihydro-7H-purin-2-yl)amino)benzamide], in data set [1] (iv, 1 mg/kg), the AUC is 679 ng·h/mL and the half-life is 1.48 h. Also, the bioavailability in data set [1] (po 10 mg/kg vs iv 1 mg/kg) came to 213%. In data set [1] (po, 10 mg/kg), the AUC was 14600 ng·h/mL, the Cmax worked out at 5450 ng/mL and the half-life is 2.17 h. Moreover, on TTK kinase, the IC50 amounted to 428 nM. Also, the IC50 at DNA-PK kinase stood at 4.36 nM. For the same molecule, in data set [2], the half-life at 0.5 µM is above 120 min.
